Peptide text beside a SMILES is read from it. * marks the point of attachment. Biotin = O=C1N[C@H]2[C@H](CS[C@H]2CCCCC(=O)*)N1
Tests used:
Assay in all cases: G' assay (10 uM PL peptide), results of TABLE 7 and TABLE 12
Assay type in all cases: binding
[1] = biological target: T1, PDZ protein (GST-PDZ fusion) (Homo sapiens, UniProt Q5TCQ9)
T1 construct: made in house; host or cells: E. coli (DH5alpha, BL21 or JM109)
T1 sequence (Q5TCQ9 1-1481): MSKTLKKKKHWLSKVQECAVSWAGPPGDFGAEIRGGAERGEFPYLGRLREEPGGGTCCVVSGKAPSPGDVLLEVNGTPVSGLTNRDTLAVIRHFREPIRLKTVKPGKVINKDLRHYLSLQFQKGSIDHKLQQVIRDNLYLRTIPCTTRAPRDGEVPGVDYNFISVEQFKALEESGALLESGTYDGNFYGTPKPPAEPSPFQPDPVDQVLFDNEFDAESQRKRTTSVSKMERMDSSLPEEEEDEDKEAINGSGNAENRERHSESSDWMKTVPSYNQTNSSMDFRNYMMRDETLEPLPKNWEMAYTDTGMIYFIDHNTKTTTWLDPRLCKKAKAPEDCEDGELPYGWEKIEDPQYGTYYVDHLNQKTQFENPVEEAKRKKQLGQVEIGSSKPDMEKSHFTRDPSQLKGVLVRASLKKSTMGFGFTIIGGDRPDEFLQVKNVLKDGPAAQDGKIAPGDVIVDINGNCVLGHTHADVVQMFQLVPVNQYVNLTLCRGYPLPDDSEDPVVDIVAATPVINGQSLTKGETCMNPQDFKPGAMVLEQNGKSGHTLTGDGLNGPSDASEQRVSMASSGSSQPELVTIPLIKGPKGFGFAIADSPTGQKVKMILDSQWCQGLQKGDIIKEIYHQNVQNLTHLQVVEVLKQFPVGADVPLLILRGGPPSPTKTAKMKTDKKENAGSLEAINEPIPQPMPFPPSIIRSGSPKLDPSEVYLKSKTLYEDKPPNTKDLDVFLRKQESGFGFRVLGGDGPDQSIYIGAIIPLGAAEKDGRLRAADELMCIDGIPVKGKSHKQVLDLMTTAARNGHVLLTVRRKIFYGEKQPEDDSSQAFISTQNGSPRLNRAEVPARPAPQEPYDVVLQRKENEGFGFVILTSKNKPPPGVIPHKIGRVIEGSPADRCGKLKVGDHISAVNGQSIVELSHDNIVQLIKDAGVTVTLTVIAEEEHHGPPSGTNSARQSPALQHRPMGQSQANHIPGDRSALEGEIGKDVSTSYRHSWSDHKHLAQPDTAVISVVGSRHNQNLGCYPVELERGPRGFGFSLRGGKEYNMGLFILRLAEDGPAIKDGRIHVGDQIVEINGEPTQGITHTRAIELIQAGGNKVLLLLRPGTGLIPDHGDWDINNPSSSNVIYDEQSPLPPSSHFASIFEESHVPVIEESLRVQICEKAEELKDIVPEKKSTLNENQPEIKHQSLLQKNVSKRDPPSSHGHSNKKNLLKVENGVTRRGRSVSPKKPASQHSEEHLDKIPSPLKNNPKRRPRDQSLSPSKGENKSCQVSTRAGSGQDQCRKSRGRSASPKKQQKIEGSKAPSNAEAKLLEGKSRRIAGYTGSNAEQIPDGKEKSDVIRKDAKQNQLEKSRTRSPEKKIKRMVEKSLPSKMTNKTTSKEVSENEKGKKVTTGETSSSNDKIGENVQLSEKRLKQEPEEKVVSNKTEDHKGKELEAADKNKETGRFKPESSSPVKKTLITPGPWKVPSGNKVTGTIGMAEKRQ
In short: (§1)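 Biotinylated PL peptides at 10 uM (vs 20 uM in G^0 assay) bound to GST-PDZ fusions; PDZ protein at 5 ug/ml unless another concentration listed. Bound peptide read as A450 nm, classified 0–5 (0 = A450 0; 5 = A450 >4 repeated).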

[2] = biological target: T2, PDZ protein (GST-PDZ fusion) (Homo sapiens, UniProt Q12923)
T2 construct: made in house; host or cells: E. coli (DH5alpha, BL21 or JM109)
In short: as §1

[3] = system: PDZ protein (GST-PDZ fusion)
In short: as §1

[4] = biological target: T3, PDZ protein (GST-PDZ fusion) (Homo sapiens, UniProt Q6P0Q8)
T3 construct: made in house; host or cells: E. coli (DH5alpha, BL21 or JM109)
In short: as §1

[5] = PDZ KIAA807, PDZ Domain not given
[6] = PDZ Connector Enhancer, PDZ Domain 1

T2 sequence (Q12923 whole entry, the tested form may be a part): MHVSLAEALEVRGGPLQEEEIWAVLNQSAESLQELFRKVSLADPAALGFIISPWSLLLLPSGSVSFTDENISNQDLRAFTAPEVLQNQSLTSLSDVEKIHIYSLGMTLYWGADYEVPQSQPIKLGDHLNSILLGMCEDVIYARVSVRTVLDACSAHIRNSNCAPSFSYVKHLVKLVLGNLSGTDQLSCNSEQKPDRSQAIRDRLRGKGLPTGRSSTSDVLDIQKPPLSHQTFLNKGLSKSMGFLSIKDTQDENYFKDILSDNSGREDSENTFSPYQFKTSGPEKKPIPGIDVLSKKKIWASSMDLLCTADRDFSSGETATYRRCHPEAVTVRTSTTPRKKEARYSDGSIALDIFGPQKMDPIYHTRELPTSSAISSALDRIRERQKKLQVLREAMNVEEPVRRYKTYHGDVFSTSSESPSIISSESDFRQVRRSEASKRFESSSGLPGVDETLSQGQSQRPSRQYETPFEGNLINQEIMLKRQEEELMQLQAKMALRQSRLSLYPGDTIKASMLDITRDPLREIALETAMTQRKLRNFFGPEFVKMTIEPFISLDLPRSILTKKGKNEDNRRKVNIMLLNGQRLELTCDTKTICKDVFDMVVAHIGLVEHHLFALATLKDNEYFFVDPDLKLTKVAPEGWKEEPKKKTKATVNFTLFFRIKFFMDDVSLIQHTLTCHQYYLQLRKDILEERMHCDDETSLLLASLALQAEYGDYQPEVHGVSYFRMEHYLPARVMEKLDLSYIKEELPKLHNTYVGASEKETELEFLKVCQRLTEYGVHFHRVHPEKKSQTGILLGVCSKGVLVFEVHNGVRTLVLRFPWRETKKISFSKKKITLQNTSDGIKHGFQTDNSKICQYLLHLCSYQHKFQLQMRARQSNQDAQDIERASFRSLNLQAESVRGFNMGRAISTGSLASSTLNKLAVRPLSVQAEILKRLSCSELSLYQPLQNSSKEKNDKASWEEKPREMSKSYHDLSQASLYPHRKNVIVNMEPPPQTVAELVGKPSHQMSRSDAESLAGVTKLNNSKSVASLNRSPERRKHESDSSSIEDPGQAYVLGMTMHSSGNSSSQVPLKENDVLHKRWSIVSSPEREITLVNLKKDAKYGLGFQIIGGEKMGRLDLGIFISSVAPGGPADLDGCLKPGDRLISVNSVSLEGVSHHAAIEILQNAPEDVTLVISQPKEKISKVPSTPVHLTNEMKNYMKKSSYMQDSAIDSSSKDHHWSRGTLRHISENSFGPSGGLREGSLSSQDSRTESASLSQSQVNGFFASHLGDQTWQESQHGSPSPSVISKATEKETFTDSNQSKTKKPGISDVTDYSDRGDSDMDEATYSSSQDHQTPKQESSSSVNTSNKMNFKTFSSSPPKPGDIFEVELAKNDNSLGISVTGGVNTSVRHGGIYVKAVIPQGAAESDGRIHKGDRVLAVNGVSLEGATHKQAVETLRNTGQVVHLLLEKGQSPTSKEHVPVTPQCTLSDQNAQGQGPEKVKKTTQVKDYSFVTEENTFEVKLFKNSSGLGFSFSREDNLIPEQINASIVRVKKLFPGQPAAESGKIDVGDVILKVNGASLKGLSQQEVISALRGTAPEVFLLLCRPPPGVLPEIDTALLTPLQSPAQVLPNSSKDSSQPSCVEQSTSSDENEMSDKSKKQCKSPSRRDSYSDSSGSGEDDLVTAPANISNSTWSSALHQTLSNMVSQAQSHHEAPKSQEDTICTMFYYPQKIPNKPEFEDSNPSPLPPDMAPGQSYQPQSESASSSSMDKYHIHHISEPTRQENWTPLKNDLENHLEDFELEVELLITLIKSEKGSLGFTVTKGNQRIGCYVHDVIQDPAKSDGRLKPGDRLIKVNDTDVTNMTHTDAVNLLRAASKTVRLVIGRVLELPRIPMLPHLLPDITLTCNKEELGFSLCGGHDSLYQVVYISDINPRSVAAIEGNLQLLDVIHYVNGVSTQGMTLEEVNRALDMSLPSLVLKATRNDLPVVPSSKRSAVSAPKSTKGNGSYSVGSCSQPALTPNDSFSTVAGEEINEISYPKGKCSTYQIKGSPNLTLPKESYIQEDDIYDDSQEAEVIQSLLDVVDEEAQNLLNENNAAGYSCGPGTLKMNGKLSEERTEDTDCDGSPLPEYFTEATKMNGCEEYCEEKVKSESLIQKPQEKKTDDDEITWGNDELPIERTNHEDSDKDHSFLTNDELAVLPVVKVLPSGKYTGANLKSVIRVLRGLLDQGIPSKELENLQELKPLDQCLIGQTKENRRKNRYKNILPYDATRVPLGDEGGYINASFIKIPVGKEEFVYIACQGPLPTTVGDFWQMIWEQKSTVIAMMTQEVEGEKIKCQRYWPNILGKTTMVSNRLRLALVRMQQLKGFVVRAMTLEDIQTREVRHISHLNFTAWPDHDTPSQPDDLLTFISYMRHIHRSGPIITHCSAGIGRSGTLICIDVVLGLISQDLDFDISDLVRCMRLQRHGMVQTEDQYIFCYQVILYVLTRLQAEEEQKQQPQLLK
T3 sequence (Q6P0Q8 whole entry, the tested form may be a part): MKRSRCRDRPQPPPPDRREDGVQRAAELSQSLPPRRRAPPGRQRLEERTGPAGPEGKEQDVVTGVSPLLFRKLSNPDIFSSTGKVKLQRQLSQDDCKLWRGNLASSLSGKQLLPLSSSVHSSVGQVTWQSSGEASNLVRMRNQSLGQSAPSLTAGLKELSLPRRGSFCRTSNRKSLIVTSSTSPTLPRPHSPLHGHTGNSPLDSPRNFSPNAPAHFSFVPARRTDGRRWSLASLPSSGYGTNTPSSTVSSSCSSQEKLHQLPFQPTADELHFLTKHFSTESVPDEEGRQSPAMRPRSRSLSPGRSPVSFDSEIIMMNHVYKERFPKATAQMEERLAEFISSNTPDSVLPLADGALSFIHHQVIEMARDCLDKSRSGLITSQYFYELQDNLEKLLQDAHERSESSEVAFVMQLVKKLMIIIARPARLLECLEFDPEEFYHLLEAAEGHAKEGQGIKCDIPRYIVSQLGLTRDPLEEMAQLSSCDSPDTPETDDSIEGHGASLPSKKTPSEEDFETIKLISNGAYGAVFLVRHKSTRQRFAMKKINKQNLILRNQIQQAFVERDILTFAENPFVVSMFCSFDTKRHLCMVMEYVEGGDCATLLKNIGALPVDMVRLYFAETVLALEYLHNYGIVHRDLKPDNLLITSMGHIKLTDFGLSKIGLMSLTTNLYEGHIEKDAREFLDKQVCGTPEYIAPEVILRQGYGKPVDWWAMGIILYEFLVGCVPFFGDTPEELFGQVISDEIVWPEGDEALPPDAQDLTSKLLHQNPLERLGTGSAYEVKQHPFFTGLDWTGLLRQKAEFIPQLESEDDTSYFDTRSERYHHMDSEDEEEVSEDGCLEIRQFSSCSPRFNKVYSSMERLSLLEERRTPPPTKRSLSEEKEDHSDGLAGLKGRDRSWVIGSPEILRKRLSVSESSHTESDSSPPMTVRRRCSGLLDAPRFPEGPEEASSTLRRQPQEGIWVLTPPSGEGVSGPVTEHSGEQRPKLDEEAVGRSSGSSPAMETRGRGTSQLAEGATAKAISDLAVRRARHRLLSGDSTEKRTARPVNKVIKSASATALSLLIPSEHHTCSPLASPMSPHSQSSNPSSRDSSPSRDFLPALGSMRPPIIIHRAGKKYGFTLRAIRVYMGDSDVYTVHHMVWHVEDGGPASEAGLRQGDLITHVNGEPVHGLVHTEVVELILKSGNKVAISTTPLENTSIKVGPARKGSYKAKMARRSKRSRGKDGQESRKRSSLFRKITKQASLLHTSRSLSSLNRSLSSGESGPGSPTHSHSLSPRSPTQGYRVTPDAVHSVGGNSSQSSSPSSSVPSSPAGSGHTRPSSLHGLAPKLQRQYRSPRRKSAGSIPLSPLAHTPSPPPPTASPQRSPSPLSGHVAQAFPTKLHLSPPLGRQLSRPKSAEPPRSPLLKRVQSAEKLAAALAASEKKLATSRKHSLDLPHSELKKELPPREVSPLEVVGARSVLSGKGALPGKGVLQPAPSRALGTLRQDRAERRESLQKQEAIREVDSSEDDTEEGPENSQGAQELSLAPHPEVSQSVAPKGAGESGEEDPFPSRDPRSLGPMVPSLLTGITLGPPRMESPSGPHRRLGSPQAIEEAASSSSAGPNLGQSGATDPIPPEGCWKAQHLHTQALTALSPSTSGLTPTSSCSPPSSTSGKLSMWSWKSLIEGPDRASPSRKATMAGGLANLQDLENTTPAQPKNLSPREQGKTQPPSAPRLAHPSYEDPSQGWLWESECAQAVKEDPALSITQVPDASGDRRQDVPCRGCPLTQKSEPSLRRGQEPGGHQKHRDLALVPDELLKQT

Compound	Classification ([1]; PDZ KIAA1634, PDZ Domain 1)	Classification ([1]; PDZ KIAA1634, PDZ Domain 2)	Classification ([1]; PDZ KIAA1634, PDZ Domain 4)	Classification ([1]; PDZ KIAA1634, PDZ Domain 5)	Classification ([2]; PDZ PTPL-1, PDZ Domain 2)	Classification ([3]; PDZ BAI-1, PDZ Domain 2)	Classification ([3]; PDZ BAI-1, PDZ Domain 3)	Classification ([3]; PDZ BAI-1, PDZ Domain 4)	Classification ([3]; PDZ BAI-1, PDZ Domain 5)	Classification ([3]; PDZ BAI-1, PDZ Domain 6)	Classification ([3]; PDZ FLJ00011 (also printed FLJ 00011), PDZ Domain 1)	Classification ([3]; PDZ FLJ 11215, PDZ Domain 1)	Classification ([4]; PDZ KIAA0807(S), PDZ Domain 1)	Classification [4, 5]	Classification ([3]; PDZ FLJ 00011, PDZ Domain 1)	Classification ([2]; PDZ PTPL-1, PDZ Domain 4)	Classification [3, 6]	Classification ([3]; PDZ HEMBA 1003117, PDZ Domain 1)	Classification ([4]; PDZ KIAA0807(S), PDZ Domain 1, Protein Optimal Conc 0.5)
TQGFPGPATWRRISSLESEV	5 (A450 nm of 4 more than 2× repeated)	3 (A450 nm 2-3)	1 (A450 nm 0-1)	1 (A450 nm 0-1)	5 (A450 nm of 4 more than 2× repeated)	4 (A450 nm 3-4)	1 (A450 nm 0-1)	3 (A450 nm 2-3)	4 (A450 nm 3-4)	2 (A450 nm 1-2)	2 (A450 nm 1-2)	1 (A450 nm 0-1)	5 (A450 nm of 4 more than 2× repeated)	4 (A450 nm 3-4)	–	–	–	–	–
CC(C)C[C@H](NC(=O)[C@H](C)NC(=O)[C@H](CO)NC(=O)CNC(=O)[C@@H](NC(=O)CCCC[C@@H]1SC[C@@H]2NC(=O)N[C@@H]21)[C@@H](C)O)C(=O)N[C@@H](CCC(N)=O)C(=O)N[C@@H](C)C(=O)N[C@@H](Cc1c[nH]c2ccccc12)C(=O)N[C@@H](CCCNC(=N)N)C(=O)N[C@@H](Cc1c[nH]cn1)C(=O)N[C@H](C(=O)N[C@@H](CO)C(=O)N[C@@H](CCCNC(=N)N)C(=O)N[C@@H](CCC(N)=O)C(=O)N[C@@H](C)C(=O)N[C@H](C(=O)N[C@@H](CCC(=O)O)C(=O)N[C@@H](CO)C(=O)N[C@H](C(=O)N[C@H](C(=O)O)C(C)C)[C@@H](C)O)[C@@H](C)O)[C@@H](C)O [HPV E6 #66 (modified)] (Biotin-TGSALQAWRHTSRQATESTV-OH; C-terminus assumed)	5 (A450 nm of 4 more than 2× repeated)	1 (A450 nm 0-1)	–	–	3 (A450 nm 2-3)	5 (A450 nm of 4 more than 2× repeated)	1 (A450 nm 0-1)	–	1 (A450 nm 0-1)	–	–	–	4 (A450 nm 3-4)	2 (A450 nm 1-2)	1 (A450 nm 0-1)	–	–	–	–
CSCC[C@H](NC(=O)[C@H](C)NC(=O)[C@H](CCCNC(=N)N)NC(=O)CNC(=O)[C@@H](NC(=O)[C@H](Cc1c[nH]c2ccccc12)NC(=O)[C@H](CCCNC(=N)N)NC(=O)CNC(=O)CCCC[C@@H]1SC[C@@H]2NC(=O)N[C@@H]21)[C@@H](C)O)C(=O)N[C@@H](CO)C(=O)N[C@@H](C)C(=O)N[C@@H](Cc1c[nH]c2ccccc12)C(=O)N[C@@H](CCCCN)C(=O)N1CCC[C@H]1C(=O)N[C@H](C(=O)N[C@@H](CCCNC(=N)N)C(=O)N[C@@H](CCCNC(=N)N)C(=O)N[C@@H](CCC(=O)O)C(=O)N[C@H](C(=O)N[C@@H](CCC(=O)O)C(=O)N[C@H](C(=O)O)C(C)C)[C@@H](C)O)[C@@H](C)O [HPV E6 #35 (modified)] (Biotin-GRWTGRAMSAWKPTRRETEV-OH; C-terminus assumed)	5 (A450 nm of 4 more than 2× repeated)	3 (A450 nm 2-3)	2 (A450 nm 1-2)	3 (A450 nm 2-3)	2 (A450 nm 1-2)	5 (A450 nm of 4 more than 2× repeated)	4 (A450 nm 3-4)	5 (A450 nm of 4 more than 2× repeated)	5 (A450 nm of 4 more than 2× repeated)	3 (A450 nm 2-3)	–	4 (A450 nm 3-4)	–	5 (A450 nm of 4 more than 2× repeated)	3 (A450 nm 2-3)	1 (A450 nm 0-1)	1 (A450 nm 0-1)	1 (A450 nm 0-1)	5 (A450 nm of 4 more than 2× repeated)
CC[C@H](C)[C@H](NC(=O)[C@H](CCC(=O)O)NC(=O)[C@H](CC(N)=O)NC(=O)[C@H](CCCNC(=N)N)NC(=O)[C@H](Cc1ccccc1)NC(=O)[C@H](CC(N)=O)NC(=O)[C@H](CO)NC(=O)[C@H](CC(N)=O)NC(=O)[C@H](CCC(=O)O)NC(=O)[C@H](CO)NC(=O)[C@H](CC(=O)O)NC(=O)[C@H](CO)NC(=O)[C@@H](NC(=O)[C@@H](NC(=O)[C@H](CC(=O)O)NC(=O)[C@H](CCCCN)NC(=O)CCCC[C@@H]1SC[C@@H]2NC(=O)N[C@@H]21)[C@@H](C)CC)[C@@H](C)O)C(=O)N[C@@H](CCC(N)=O)C(=O)N[C@@H](CO)C(=O)N[C@@H](CC(C)C)C(=O)N[C@H](C(=O)O)C(C)C [CD95] (Biotin-KDITSDSENSNFRNEIQSLV-OH; C-terminus assumed)	1 (A450 nm 0-1)	1 (A450 nm 0-1)	1 (A450 nm 0-1)	–	3 (A450 nm 2-3)	–	–	–	3 (A450 nm 2-3)	–	–	–	–	–	–	1 (A450 nm 0-1)	–	–	–
CC[C@H](C)[C@H](NC(=O)[C@H](Cc1c[nH]cn1)NC(=O)[C@H](C)NC(=O)[C@H](C)NC(=O)[C@H](CO)NC(=O)[C@@H]1CCCN1C(=O)[C@H](CCCNC(=N)N)NC(=O)[C@H](CC(=O)O)NC(=O)[C@H](CCCCN)NC(=O)[C@@H]1CCCN1C(=O)[C@H](CC(=O)O)NC(=O)[C@H](CCC(=O)O)NC(=O)CCCC[C@@H]1SC[C@@H]2NC(=O)N[C@@H]21)C(=O)N[C@H](C(=O)N[C@@H](CCC(=O)O)C(=O)N[C@@H](C)C(=O)N[C@@H](CC(C)C)C(=O)N[C@@H](CCC(=O)O)C(=O)N[C@H](C(=O)N[C@@H](CC(=O)O)C(=O)N[C@H](C(=O)O)C(C)C)[C@@H](C)O)C(C)C [PDZ-binding kinase (PBK)] (Biotin-EDPKDRPSAAHIVEALETDV-OH; C-terminus assumed)	–	3 (A450 nm 2-3)	–	–	4 (A450 nm 3-4)	–	1 (A450 nm 0-1)	–	–	–	–	–	–	–	–	–	–	–	–
CC[C@H](C)[C@H](NC(=O)[C@H](CCC(N)=O)NC(=O)CCCC[C@@H]1SC[C@@H]2NC(=O)N[C@@H]21)C(=O)N[C@@H](CO)C(=O)N1CCC[C@H]1C(=O)NCC(=O)NCC(=O)N[C@@H](CC(C)C)C(=O)N[C@@H](CCC(=O)O)C(=O)N1CCC[C@H]1C(=O)N1CCC[C@H]1C(=O)N[C@@H](CO)C(=O)N[C@@H](CCC(=O)O)C(=O)N[C@@H](CCCCN)C(=O)N[C@@H](Cc1c[nH]cn1)C(=O)N[C@@H](Cc1ccccc1)C(=O)N[C@@H](CCCNC(=N)N)C(=O)N[C@@H](CCC(=O)O)C(=O)N[C@H](C(=O)N[C@@H](CCC(=O)O)C(=O)N[C@H](C(=O)O)C(C)C)[C@@H](C)O [Tax]	5 (A450 nm of 4 more than 2× repeated)	2 (A450 nm 1-2)	2 (A450 nm 1-2)	1 (A450 nm 0-1)	2 (A450 nm 1-2)	5 (A450 nm of 4 more than 2× repeated)	1 (A450 nm 0-1)	2 (A450 nm 1-2)	5 (A450 nm of 4 more than 2× repeated)	1 (A450 nm 0-1)	–	1 (A450 nm 0-1)	–	–	1 (A450 nm 0-1)	–	1 (A450 nm 0-1)	–	–
